Measured values from ChEMBL document CHEMBL1155515, “Discovery of novel selective norepinephrine reuptake inhibitors: 4-[3-aryl-2,2-dioxido-2,1,3-benzothiadiazol-1(3H)-yl]-1-(methylamino)butan-2-ols (WYE-103231)” (J Med Chem, 2010).

Key:
Assay type in all cases: ADME, organism-based
[1] = Tmax in male rat at 10 mg/kg, po; parameters: dose 10 mg/kg, route oral; conditions: in vivo
[2] = Oral bioavailability in ovariectomised female rat at 5 mg/kg; conditions: in vivo
[3] = Cmax in male rat at 10 mg/kg, po; parameters: dose 10 mg/kg, route oral; conditions: in vivo
[4] = Ratio of drug level from brain to plasma in ovariectomised female rat; conditions: read-out: BPR
[5] = AUC (0 to infinity) in male rat at 2 mg/kg, iv; parameters: time infinity, dose 2 mg/kg, route intravenous; conditions: plasma
[6] = Cmax in intact female rat at 5 mg/kg, po; parameters: dose 5 mg/kg, route oral; conditions: in vivo
[7] = Oral bioavailability in intact female rat at 5 mg/kg; conditions: in vivo
[8] = Tmax in ovariectomised female rat at 5 mg/kg, po; parameters: dose 5 mg/kg, route oral; conditions: in vivo
[9] = AUC (0 to infinity) in intact female rat at 5 mg/kg, po; parameters: time infinity, dose 5 mg/kg, route oral; conditions: plasma
[10] = Volume of distribution at steady state in ovariectomised female rat at 2 mg/kg, iv; parameters: dose 2 mg/kg, route intravenous; conditions: in vivo, read-out: Vdss
[11] = Oral bioavailability in male rat at 10 mg/kg; conditions: in vivo
[12] = Volume of distribution at steady state in male rat at 2 mg/kg, iv; parameters: dose 2 mg/kg, route intravenous; conditions: in vivo, read-out: Vdss
[13] = AUC (0 to infinity) in male rat at 10 mg/kg, po; parameters: time infinity, dose 10 mg/kg, route oral; conditions: plasma
[14] = Cmax in ovariectomised female rat at 5 mg/kg, po; parameters: dose 5 mg/kg, route oral; conditions: in vivo
[15] = AUC (0 to infinity) in intact female rat at 2 mg/kg, iv; parameters: time infinity, dose 2 mg/kg, route intravenous; conditions: plasma
[16] = AUC (0 to infinity) in ovariectomised female rat at 5 mg/kg, po; parameters: dose 5 mg/kg, route oral, time infinity; conditions: plasma
[17] = Volume of distribution at steady state in intact female rat at 2 mg/kg, iv; parameters: dose 2 mg/kg, route intravenous; conditions: in vivo, read-out: Vdss
[18] = AUC (0 to infinity) in ovariectomised female rat at 2 mg/kg, iv; parameters: time infinity, dose 2 mg/kg, route intravenous; conditions: plasma
[19] = Tmax in intact female rat at 5 mg/kg, po; parameters: dose 5 mg/kg, route oral; conditions: in vivo

Which Tmax [1] does the source give for `CNC[C@@H](O)CCN1c2ccccc2N(c2ccccc2F)S1(=O)=O` here?
Its Tmax is 1.38 h.

What about the bioavailability [2] of the same compound?
The bioavailability was 95.2%.

What about the Cmax [3] of the same compound?
The Cmax was 154 ng/mL.

And the Kp [4]?
The Kp was 3.6.

What about the AUC(0-inf) [5] of the same compound?
Its AUC(0-inf) is 199 ng·h/mL.

What about the Cmax [6] of the same compound?
The Cmax was 135 ng/mL.

What about the bioavailability [7] of the same compound?
The bioavailability was 41.3%.

What about the Tmax [8] of the same compound?
Its Tmax is 1.63 h.

And the AUC(0-inf) [9]?
The AUC(0-inf) was 959 ng·h/mL.

What about the Vd [10] of the same compound?
Its Vd is 25.3 L/kg.

What about the bioavailability [11] of the same compound?
The bioavailability was 100%.

And the Vd [12]?
The Vd was 36.3 L/kg.

And the AUC(0-inf) [13]?
The AUC(0-inf) was 1040 ng·h/mL.

What about the Cmax [14] of the same compound?
Its Cmax is 125 ng/mL.

And the AUC(0-inf) [15]?
The AUC(0-inf) was 929 ng·h/mL.

What about the AUC(0-inf) [16] of the same compound?
The AUC(0-inf) was 1200 ng·h/mL.

What about the Vd [17] of the same compound?
Its Vd is 11.3 L/kg.

What about the AUC(0-inf) [18] of the same compound?
Its AUC(0-inf) is 505 ng·h/mL.

And the Tmax [19]?
Its Tmax is 0.56 h.
